Results reported in PMC8951032, “Study of Biological Activities and ADMET-Related Properties of Novel Chlorinated N-arylcinnamamides” (International Journal of Molecular Sciences, 2022).
Converted amounts (≈) assume the structure as drawn. Like-named read-outs stand apart in the source and are kept apart here.

Tests used:
[1] = tested on: human monocytic leukemia cell line THP-1; experiment: In vitro cell viability, CCK-8; type: cell-based; conditions: Homo sapiens, THP-1
Procedure: (§1) The effect of the compounds on viability of eukaryotic cells was evaluated on human leukemia cell line THP-1, human synovial cell line SW982, and isolated primary porcine monocytes-delivered macrophages (MDM). The general cytotoxic effect was studied on THP-1 cells in the serum-free medium (only THP-1 as the only cells used in this study are able to survive in serum-free medium). Most of the compounds had no cytotoxic effect on THP-1 cells. […] This could be caused by the direct interaction of such compounds with serum proteins or by the effect of mitogens, cytokines, and hormones present in the serum. Obviously, the full medium is closer to physiological conditions in living organisms, so it can be assumed that these compounds could be non-toxic there.
(§2) Human monocytic leukemia cell line THP-1 and human synovial cell line SW982 were purchased from the European Collection of Cell Cultures (ECACC, Salisbury, UK) and were used for determination of the influence of test compounds on cell viability, as described previously. These cell lines represent typical suspension and adherent cells, respectively. They were cultivated with test substances in the presence or absence of fetal bovine serum (FBS) in the cultivation medium, and the relative cell viability (the ratio between cells treated with compounds and cells treated only with DMSO) was determined by CCK-8 kit (Sigma) after 24 h.

[2] = tested on: human synovial cell line SW982; experiment: In vitro cell viability, CCK-8; type: cell-based; conditions: 10% fetal bovine serum
Procedure: as §1, §2

[3] = tested on: methicillin-resistant S. aureus (MRSA) 63718; experiment: In vitro antistaphylococcal activity, microtitration broth MIC; type: cell-based; conditions: Staphylococcus aureus
[4] = tested on: vancomycin-resistant E. faecalis (VRE) 725B; experiment: In vitro antienterococcal activity, microtitration broth MIC; type: cell-based, Enterococcus faecalis; conditions: 24 h
[5] = tested on: Enterococcus faecalis ATCC 29212; experiment: as above; type: cell-based
[6] = tested on: S. aureus, MRSA, E. faecalis, VRE, M. smegmatis, M. marinum; experiment: In vitro antimicrobial screening, all tested strains; type: cell-based; conditions: antibacterial/antimycobacterial screening
[7] = tested on: Mycobacterium marinum CAMP 5644; experiment: In vitro antimycobacterial activity, broth dilution MIC; type: cell-based; conditions: CAMP5644, 504 h
[8] = tested on: vancomycin-resistant E. faecalis (VRE) 342B; experiment: In vitro antienterococcal activity, microtitration broth MIC; type: cell-based, Enterococcus faecalis; conditions: 24 h
[9] = tested on: methicillin-resistant S. aureus SA 630; experiment: In vitro antistaphylococcal activity, microtitration broth MIC; type: cell-based; conditions: Staphylococcus aureus
[10] = tested on: Staphylococcus aureus ATCC 29213; experiment: as above; type: cell-based; conditions: for MIC: Staphylococcus aureus
[11] = tested on: methicillin-resistant S. aureus SA 3202; experiment: as above; type: cell-based; conditions: Staphylococcus aureus
[12] = tested on: Mycobacterium smegmatis ATCC 700084; experiment: In vitro antimycobacterial activity, broth dilution MIC; type: cell-based; conditions: Mycolicibacterium smegmatis
[13] = tested on: porcine monocyte-derived macrophages (MDM); experiment: In vitro cell viability, CCK-8; type: cell-based; conditions: Sus scrofa, Macrophage, 10% fetal bovine serum
Procedure: as §1
Porcine monocyte-derived macrophages (MDMs) were prepared, as described previously. Briefly, blood was collected from three-month-old pigs and peripheral blood mononuclear cells (PBMC) were isolated by gradient centrifugation (830× g, 40 min) using Histopaque-1077 (Sigma). CD14+ cells were isolated by positive magnetic bead selection with LS separation columns (Miltenyi Biotec, Bergisch Gladbach, Germany). Isolated monocytes were cultured in 96-well plates at a concentration of 1 × 10^5 cells per well in 0.2 mL of DMEM supplemented with 10% FBS and 1% antibiotics (Antibiotic Antimycotic Solution 100 × 10,000 units penicillin, 10 mg streptomycin, and 25 μg amphotericin B per mL; Sigma) and incubated for five days at 37 °C in 5% CO2 to differentiate into macrophages. Then, MDMs were cultured for 24 h with tested substances and the relative cell viability was determined by CCK-8 kit (Sigma) following manufacturer instructions.

[14] = tested on: vancomycin-resistant E. faecalis (VRE) 368; experiment: In vitro antienterococcal activity, microtitration broth MIC; type: cell-based, Enterococcus faecalis
[15] = 10% fetal bovine serum, 24 h, read-out: IC50 THP-1 10% FSB
[16] = 10% fetal bovine serum, read-out: log(1/IC50 [M]) THP-1 10% FSB (converted)
[17] = serum-free medium, 24 h, read-out: IC50 THP-1 SFM
[18] = serum-free medium, read-out: log(1/IC50 [M]) THP-1 SFM (converted)
[19] = 24 h, read-out: IC50 SW982 10% FSB
[20] = read-out: log(1/IC50 [M]) SW982 10% FSB (converted)
[21] = 24 h, MRSA 63718, read-out: log(1/MIC [M]) MRSA1 (converted)
[22] = MRSA 63718, 24 h, read-out: MIC MRSA1
[23] = read-out: log(1/MIC [M]) VRE3 (converted)
[24] = ATCC29212, 24 h, E. faecalis reference strain, read-out: log(1/MIC [M]) EF (converted)
[25] = ATCC29212, E. faecalis reference strain, 24 h, read-out: MIC EF
[26] = M. marinum CAMP 5644, 21 days, read-out: MIC MM
[27] = M. marinum CAMP 5644, read-out: log(1/MIC [M]) MM (converted)
[28] = read-out: log(1/MIC [M]) VRE1 (converted)
[29] = 24 h, MRSA SA 630, read-out: log(1/MIC [M]) MRSA2 (converted)
[30] = MRSA SA 630, 24 h, read-out: MIC MRSA2
[31] = ATCC29213, 24 h, S. aureus ATCC 29213, read-out: log(1/MIC [M]) SA (converted)
[32] = ATCC29213, S. aureus ATCC 29213, 24 h, read-out: MIC SA
[33] = 24 h, MRSA SA 3202, read-out: log(1/MIC [M]) MRSA3 (converted)
[34] = MRSA SA 3202, 24 h, read-out: MIC MRSA3
[35] = ATCC700084, 72 h, M. smegmatis ATCC 700084, three days, read-out: MIC MS
[36] = ATCC700084, M. smegmatis ATCC 700084, read-out: log(1/MIC [M]) MS (converted)
[37] = 24 h, read-out: IC50 MDM 10% FSB
[38] = read-out: log(1/IC50 [M]) MDM 10% FSB (converted)
[39] = 24 h, VRE 368, read-out: log(1/MIC [M]) VRE2 (converted)
[40] = VRE 368, 24 h, read-out: MIC VRE2

Row | IC50 [1, 15] | IC50 [1, 16] | IC50 [1, 17] | IC50 [1, 18] | IC50 [2, 19] | IC50 [2, 20] | MIC [3, 21] | MIC [3, 22] | MIC ([4]; read-out: MIC VRE3) | MIC [4, 23] | MIC [5, 24] | MIC [5, 25] | MIC [7, 26] | MIC [7, 27] | MIC ([8]; read-out: MIC VRE1) | MIC [8, 28] | MIC [9, 29] | MIC [9, 30] | MIC [10, 31] | MIC [10, 32] | Compound | other results
1 | > 1e-05 M | > 1e-05 M | 2.9e-06 ± 1.2e-06 M | 2.88e-06 M | > 1e-05 M | > 1e-05 M | 6.17e-06 M (≈ 2.01 µg/mL) | 6.14e-06 M (≈ 2 µg/mL) | > 0.000786 M | > 0.000794 M | > 0.000794 M | > 0.000786 M | > 0.000786 M | > 0.000794 M | > 0.000786 M | > 0.000794 M | 3.09e-06 M (≈ 1.01 µg/mL) | 3.07e-06 M (≈ 1 µg/mL) | 6.17e-06 M (≈ 2.01 µg/mL) | 6.14e-06 M (≈ 2 µg/mL) | O=C(/C=C/c1ccc(Cl)cc1)Nc1cccc(C(F)(F)F)c1 [1i, (2E)-3-(4-Chlorophenyl)-N-[3-(trifluoromethyl)phenyl]prop-2-enamide] | antimicrobial activity (in words) [6]: showed activity; MIC [11, 33]: 6.17e-06 M (≈ 2.01 µg/mL); MIC [11, 34]: 6.14e-06 M (≈ 2 µg/mL); MIC [12, 35]: > 0.000786 M; MIC [12, 36]: > 0.000794 M; IC50 [13, 37]: > 1e-05 M; IC50 [13, 38]: > 1e-05 M; MIC [14, 39]: > 0.000794 M; MIC [14, 40]: > 0.000786 M
2 | > 1e-05 M | > 1e-05 M | 2.5e-06 ± 1.1e-06 M | 2.51e-06 M | > 1e-05 M | > 1e-05 M | 3.8e-07 M (≈ 0.124 µg/mL) | 3.83e-07 M (≈ 0.125 µg/mL) | > 0.000783 M | > 0.000776 M | > 0.000776 M | > 0.000783 M | > 0.000783 M | > 0.000776 M | > 0.000783 M | > 0.000776 M | 3.8e-07 M (≈ 0.124 µg/mL) | 3.83e-07 M (≈ 0.125 µg/mL) | 3.8e-07 M (≈ 0.124 µg/mL) | 3.83e-07 M (≈ 0.125 µg/mL) | O=C(/C=C/c1ccc(Cl)cc1)Nc1cc(Cl)cc(Cl)c1 [1p, (2E)-3-(4-Chlorophenyl)-N-(3,5-dichlorophenyl)prop-2-enamide] | antimicrobial activity (in words) [6]: showed activity; activity against S. aureus and MRSA isolates (in words) [10]: submicromolar; MIC [11, 33]: 7.59e-07 M (≈ 0.248 µg/mL); MIC [11, 34]: 7.65e-07 M (≈ 0.25 µg/mL); MIC [12, 35]: 2.45e-05 M (≈ 8 µg/mL); MIC [12, 36]: 2.45e-05 M (≈ 8.02 µg/mL); IC50 [13, 37]: > 1e-05 M; IC50 [13, 38]: > 1e-05 M; MIC [14, 39]: > 0.000776 M; MIC [14, 40]: > 0.000783 M
3 | > 1e-05 M | > 1e-05 M | 1e-06 ± 1.1e-06 M | 1e-06 M | > 1e-05 M | > 1e-05 M | 3.16e-07 M (≈ 0.125 µg/mL) | 3.18e-07 M (≈ 0.125 µg/mL) | 0.000325 M (≈ 128 µg/mL) | 0.000324 M (≈ 127 µg/mL) | 0.000324 M (≈ 127 µg/mL) | 0.000325 M (≈ 128 µg/mL) | > 0.00065 M | > 0.000646 M | 0.00065 M (≈ 256 µg/mL) | 0.000646 M (≈ 254 µg/mL) | 3.16e-07 M (≈ 0.125 µg/mL) | 3.18e-07 M (≈ 0.125 µg/mL) | 3.16e-07 M (≈ 0.125 µg/mL) | 3.18e-07 M (≈ 0.125 µg/mL) | O=C(/C=C/c1ccc(Cl)cc1)Nc1cc(C(F)(F)F)cc(C(F)(F)F)c1 [1q, (2E)-N-[3,5-bis(Trifluoromethyl)phenyl]-3-(4-chlorophenyl)prop-2-enamide] | antimicrobial activity (in words) [6]: showed activity; activity against S. aureus and MRSA isolates (in words) [10]: submicromolar; MIC [11, 33]: 6.31e-07 M (≈ 0.248 µg/mL); MIC [11, 34]: 6.35e-07 M (≈ 0.25 µg/mL); MIC [12, 35]: 2.54e-06 M (≈ 1 µg/mL); MIC [12, 36]: 2.51e-06 M (≈ 0.989 µg/mL); IC50 [13, 37]: > 1e-05 M; IC50 [13, 38]: > 1e-05 M; MIC [14, 39]: 0.000324 M (≈ 127 µg/mL); MIC [14, 40]: 0.000325 M (≈ 128 µg/mL)
4 | > 1e-05 M | > 1e-05 M | 7.5e-06 ± 1e-06 M | 7.59e-06 M | > 1e-05 M | > 1e-05 M | > 0.000871 M | > 0.000876 M | > 0.000876 M | > 0.000871 M | 0.000871 M (≈ 254 µg/mL) | 0.000876 M (≈ 256 µg/mL) | 0.000876 M (≈ 256 µg/mL) | 0.000871 M (≈ 254 µg/mL) | > 0.000876 M | > 0.000871 M | > 0.000871 M | > 0.000876 M | 1.38e-05 M (≈ 4.03 µg/mL) | 1.36e-05 M (≈ 3.97 µg/mL) | O=C(/C=C/c1ccc(Cl)c(Cl)c1)Nc1ccccc1 [2a, (2E)-3-(3,4-Dichlorophenyl)-N-phenylprop-2-enamide] | MIC [11, 33]: > 0.000871 M; MIC [11, 34]: > 0.000876 M; MIC [12, 35]: 1.36e-05 M (≈ 3.97 µg/mL); MIC [12, 36]: 1.38e-05 M (≈ 4.03 µg/mL); IC50 [13, 37]: > 1e-05 M; IC50 [13, 38]: > 1e-05 M; MIC [14, 39]: > 0.000871 M; MIC [14, 40]: > 0.000876 M
